One test has as its system H9c2. The experiment in a line: cells. Format: functional, cell-based. As to conditions: Rattus norvegicus, H9c2, Myocardium.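 Note: confirmatory concentration-response retest of ultra-high-throughput screening hits for modulation of myocardial damage; cell death induced by hydrogen peroxide oxidative stress; compound pretreatment for 60 min then peroxide exposure for 2 h; potency is for protecting the cells against peroxide damage rather than for killing them.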
Test [1] in a line: antiviral protection against BTV-induced cell death – arbovirus, BSR cells, confirmation (AID 1250).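 Note: protection from viral cytopathic effect measured as cell viability by ATP luminescence.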 In kind it is functional.
Test [2] in a line: Luminescence Cell-Based Dose-Confimation HTS to Identify Inhibitors of 5'UTR Stem-Loop Driven Alpha-Synuclein mRNA Translation in H4 Neuroglioblastoma Cells. [Related pubchem assays: 1827 (Project Summary), 1813 (Primary HTS)]. Format: functional.
Test [3] addresses T1, Heat shock 70 kDa protein 1A (Homo sapiens, UniProt P0DMV8). The experiment in a line: small molecules displacing fluorescent ligand from Hsp70 – biochemical, fluorescence polarization, primary screen (AID 583).
For test [4], the target named is T1, Heat shock 70 kDa protein 1A. The experiment in a line: small-molecule inhibition of Hsp70 – biochemical, TR-FRET (AID 786).
The subject of another test is Vero. The experiment in a line: viability of Vero cells under compound – cytotoxicity control for flavivirus capping enzyme inhibitors (AID 588742). Format: functional. As to conditions: Chlorocebus sabaeus.
A short description of test [5]: reduction of Shn3 3'UTR-driven luciferase in osteoblasts – cell-based, Clone20 osteoblasts, firefly luciferase, cherry-picked, dose response (AID 624132).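 Note: firefly luciferase luminescence from reporter carrying the Shn3 3'UTR in osteoblasts.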 Format: functional.
The next test has as its target Genome polyprotein (dengue virus type 2, UniProt P29990). The experiment in a line: flavivirus cap methylation enzyme inhibition – biochemical, confirmation dose response, primary screen (AID 588689). Format: functional.
Test [6] deals with T2, Hepatocyte nuclear factor 4-alpha (Homo sapiens, UniProt P41235).
T2 sequence (P41235 whole entry): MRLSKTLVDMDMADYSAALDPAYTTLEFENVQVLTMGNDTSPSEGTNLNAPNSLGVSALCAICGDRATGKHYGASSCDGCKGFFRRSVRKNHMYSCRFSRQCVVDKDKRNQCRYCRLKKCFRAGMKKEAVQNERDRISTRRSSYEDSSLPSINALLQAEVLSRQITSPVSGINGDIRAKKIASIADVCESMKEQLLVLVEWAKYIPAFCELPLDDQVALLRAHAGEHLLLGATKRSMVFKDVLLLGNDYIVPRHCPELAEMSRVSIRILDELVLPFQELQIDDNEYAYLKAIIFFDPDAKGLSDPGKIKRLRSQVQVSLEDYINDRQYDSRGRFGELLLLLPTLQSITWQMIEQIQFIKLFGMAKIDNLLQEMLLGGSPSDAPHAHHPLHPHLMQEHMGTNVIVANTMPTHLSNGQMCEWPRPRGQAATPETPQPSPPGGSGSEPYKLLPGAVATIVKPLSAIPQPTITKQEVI
In kind it is functional, cell-based.

The nature of test [7]: loss of viability in HepG2 cells – cell-based, CellTiter-Glo, cherry-picked, cytotoxicity control for Shn3 inhibitor project, dose response (AID 624134). In kind it is functional.
Test [8] concerns the target T3, Replicative DNA helicase DnaB (Mycobacterium tuberculosis, UniProt P9WMR3).
T3 sequence (P9WMR3 whole entry): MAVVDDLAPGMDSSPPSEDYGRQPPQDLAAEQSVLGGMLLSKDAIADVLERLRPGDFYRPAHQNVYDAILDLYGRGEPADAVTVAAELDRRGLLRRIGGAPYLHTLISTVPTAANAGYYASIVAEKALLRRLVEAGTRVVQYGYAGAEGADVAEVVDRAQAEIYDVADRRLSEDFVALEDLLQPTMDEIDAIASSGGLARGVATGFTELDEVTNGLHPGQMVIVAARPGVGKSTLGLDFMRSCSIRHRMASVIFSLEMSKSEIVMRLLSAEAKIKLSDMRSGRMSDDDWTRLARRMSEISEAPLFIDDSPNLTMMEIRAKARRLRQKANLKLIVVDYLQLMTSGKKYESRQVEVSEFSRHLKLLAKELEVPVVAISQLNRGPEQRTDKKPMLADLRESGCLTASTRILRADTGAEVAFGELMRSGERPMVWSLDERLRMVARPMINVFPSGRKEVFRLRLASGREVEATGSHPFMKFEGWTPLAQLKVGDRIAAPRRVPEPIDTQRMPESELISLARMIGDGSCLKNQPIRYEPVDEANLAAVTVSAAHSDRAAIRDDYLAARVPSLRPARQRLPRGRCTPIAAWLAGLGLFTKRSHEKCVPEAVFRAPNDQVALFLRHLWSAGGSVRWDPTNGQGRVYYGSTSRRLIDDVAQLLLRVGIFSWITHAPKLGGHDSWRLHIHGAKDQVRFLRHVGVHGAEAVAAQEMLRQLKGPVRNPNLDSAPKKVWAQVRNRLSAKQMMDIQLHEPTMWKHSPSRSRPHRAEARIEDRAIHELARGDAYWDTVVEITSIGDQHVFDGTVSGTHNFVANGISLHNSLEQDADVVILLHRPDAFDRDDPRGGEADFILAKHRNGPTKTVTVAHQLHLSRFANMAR
The experiment in a line: DnaB intein splicing inhibitors, dose response, biochemical, cell-free fluorescence (AID 449749). In kind it is functional.

The target of another test is T4, Protein RecA (Mycobacterium tuberculosis, UniProt P9WHJ3).
T4 sequence (P9WHJ3 whole entry): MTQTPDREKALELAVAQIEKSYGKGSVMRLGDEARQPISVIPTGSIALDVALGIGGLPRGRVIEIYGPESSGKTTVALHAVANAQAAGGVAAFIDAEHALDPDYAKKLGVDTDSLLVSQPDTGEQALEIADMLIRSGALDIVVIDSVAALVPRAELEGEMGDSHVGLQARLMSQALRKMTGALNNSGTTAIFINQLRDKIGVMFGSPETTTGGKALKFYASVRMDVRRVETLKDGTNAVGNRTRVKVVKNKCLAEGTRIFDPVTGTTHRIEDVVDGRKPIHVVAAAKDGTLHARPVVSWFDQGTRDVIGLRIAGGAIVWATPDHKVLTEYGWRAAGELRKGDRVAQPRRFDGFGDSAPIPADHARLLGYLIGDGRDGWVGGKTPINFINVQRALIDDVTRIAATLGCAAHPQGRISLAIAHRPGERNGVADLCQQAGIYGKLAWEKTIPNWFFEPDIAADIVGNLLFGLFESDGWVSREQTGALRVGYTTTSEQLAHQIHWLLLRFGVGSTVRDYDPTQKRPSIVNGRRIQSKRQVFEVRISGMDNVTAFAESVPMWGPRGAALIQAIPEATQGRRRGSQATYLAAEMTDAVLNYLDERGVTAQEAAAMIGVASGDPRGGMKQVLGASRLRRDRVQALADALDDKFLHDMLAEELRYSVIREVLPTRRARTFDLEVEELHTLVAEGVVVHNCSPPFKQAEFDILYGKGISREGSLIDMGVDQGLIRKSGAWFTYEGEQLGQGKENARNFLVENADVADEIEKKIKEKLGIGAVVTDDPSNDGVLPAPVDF
The experiment in a line: Fluorescence Cell-Free Homogeneous Dose Retest to Identify Inhibitors of RecA-Intein Splicing Activity. [Related pubchem assays (depositor defined):AID2097, AID2223, AID489010, AID492950]. Format: functional.

Test [9] deals with Potassium voltage-gated channel subfamily KQT member 2 (Rattus norvegicus, UniProt O88943, W236L). The experiment in a line: potentiation of rat KCNQ2 current – cell-based, automated electrophysiology, mechanism study for KCNQ2 potentiator project, dose response (AID 2603). In kind it is functional.
Chain of Potassium voltage-gated channel subfamily KQT member 2 (O88943 whole entry W236L): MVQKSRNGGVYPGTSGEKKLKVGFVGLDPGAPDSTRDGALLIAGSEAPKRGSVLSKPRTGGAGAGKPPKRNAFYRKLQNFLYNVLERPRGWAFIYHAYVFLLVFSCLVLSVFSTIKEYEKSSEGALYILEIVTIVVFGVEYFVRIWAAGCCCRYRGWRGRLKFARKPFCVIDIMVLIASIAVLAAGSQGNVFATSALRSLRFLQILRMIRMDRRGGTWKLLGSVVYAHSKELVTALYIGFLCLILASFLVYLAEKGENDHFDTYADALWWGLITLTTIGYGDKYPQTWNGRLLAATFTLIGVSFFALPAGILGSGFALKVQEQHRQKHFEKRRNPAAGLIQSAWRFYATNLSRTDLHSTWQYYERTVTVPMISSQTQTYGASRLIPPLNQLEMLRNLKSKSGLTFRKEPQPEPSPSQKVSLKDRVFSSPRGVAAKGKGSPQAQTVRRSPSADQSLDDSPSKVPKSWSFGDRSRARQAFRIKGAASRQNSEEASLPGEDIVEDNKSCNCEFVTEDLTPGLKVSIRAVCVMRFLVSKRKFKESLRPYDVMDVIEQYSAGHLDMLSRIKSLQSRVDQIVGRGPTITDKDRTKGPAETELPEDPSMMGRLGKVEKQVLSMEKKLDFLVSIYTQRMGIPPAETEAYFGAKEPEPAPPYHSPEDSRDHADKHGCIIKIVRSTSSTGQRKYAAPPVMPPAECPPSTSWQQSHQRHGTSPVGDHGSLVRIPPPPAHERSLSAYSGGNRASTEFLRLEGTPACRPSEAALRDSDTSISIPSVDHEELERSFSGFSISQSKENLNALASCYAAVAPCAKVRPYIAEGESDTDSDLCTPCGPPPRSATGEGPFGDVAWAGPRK
Test [10] in a line: non-specific 3'UTR reporter inhibition in Clone20-Shn3RL – cell-based, Renilla luciferase, cherry-picked, counter-screen for Shn3 inhibitor project, dose response (AID 624133). Format: functional.

Structures are written as SMILES. Calls of active or inactive are those of the source.

T1 sequence (P0DMV8 whole entry): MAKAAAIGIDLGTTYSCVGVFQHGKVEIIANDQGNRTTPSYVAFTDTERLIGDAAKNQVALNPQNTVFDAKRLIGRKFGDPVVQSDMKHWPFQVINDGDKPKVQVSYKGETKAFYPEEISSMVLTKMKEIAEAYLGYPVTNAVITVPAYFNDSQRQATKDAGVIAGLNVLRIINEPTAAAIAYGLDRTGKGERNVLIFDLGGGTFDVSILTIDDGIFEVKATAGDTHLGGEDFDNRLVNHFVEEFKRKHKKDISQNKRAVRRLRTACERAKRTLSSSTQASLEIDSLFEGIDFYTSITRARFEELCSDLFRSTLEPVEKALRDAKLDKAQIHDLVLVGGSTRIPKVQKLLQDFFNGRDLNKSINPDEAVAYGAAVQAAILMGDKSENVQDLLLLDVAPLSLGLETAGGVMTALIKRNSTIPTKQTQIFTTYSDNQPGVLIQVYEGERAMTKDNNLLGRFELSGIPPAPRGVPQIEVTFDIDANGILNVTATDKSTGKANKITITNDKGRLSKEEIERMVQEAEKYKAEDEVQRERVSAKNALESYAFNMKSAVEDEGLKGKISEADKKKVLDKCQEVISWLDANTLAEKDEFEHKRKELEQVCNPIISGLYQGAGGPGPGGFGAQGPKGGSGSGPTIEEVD
Chain of Genome polyprotein (P29990 2492-3391 limits assumed): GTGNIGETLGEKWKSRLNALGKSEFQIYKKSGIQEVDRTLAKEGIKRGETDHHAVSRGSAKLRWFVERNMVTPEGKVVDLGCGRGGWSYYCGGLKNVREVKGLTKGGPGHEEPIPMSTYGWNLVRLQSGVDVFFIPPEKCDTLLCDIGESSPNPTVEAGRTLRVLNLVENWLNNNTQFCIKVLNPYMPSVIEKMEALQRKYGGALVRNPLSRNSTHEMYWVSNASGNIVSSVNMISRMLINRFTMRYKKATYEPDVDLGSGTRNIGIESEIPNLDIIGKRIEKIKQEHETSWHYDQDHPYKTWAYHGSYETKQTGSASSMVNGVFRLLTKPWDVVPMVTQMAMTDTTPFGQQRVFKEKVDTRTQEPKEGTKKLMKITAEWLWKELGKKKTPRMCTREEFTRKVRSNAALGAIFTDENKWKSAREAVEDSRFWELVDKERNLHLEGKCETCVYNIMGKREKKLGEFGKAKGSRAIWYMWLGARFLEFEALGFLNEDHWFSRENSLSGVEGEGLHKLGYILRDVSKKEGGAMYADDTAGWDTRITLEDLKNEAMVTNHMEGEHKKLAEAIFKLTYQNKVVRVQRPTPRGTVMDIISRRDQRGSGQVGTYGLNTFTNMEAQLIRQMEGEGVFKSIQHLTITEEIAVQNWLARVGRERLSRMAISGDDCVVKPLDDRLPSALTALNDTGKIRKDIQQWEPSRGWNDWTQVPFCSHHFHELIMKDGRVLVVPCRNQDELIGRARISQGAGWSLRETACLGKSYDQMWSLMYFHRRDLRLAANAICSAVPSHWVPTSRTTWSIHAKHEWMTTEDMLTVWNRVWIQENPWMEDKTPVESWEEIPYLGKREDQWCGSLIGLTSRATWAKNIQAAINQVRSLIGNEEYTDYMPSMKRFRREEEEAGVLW

With `COc1ccc(-c2nc(NC(=O)c3ccc(OCC(=O)N4CCOCC4)c(OC)c3)sc2C)cc1`, the IC50 was > 79 µM (inactive) in the test on H9c2 and 83.5 µM (active) in [1].

Turning to `CN(C)c1nc(N)nc(CSc2nnnn2-c2ccc(Cl)cc2)n1`, in test [2], the EC50 was > 100 µM (not active).

With `CC(C)(C)n1nnnc1C(c1ccc2ncccc2c1)N1CCSCC1` (centres undefined), the IC50 in test [3] and in test [4] was > 100 µM (not active) each time.

For `CSc1nnc(NC(=O)c2nc(S(=O)(=O)Cc3ccc(C)cc3)ncc2Cl)s1`, in the test with Vero, the CC50 is 30.9 µM (active). Further, the AC50 was 3.18 µM (active) in [5], > 70 µM (inactive) in test [7], 5.31 µM (active) in test [8] and 11.1 µM (active) in [10]. Also, the half-maximal inhibitory concentration (IC50) at Genome polyprotein was 40.5 µM (active); in test [6], 4.93 µM (active). The EC50 at Protein RecA was 3.26 µM (active); in test [9], 34.9 µM (active).
